Laboratory results reported in a melting point compilation (Tetko et al.; mined from patent text by program, amines drawn as free bases though some values may be those of a salt).

| SMILES | melting point [°C] |
| --- | --- |
| CCOC(=O)C(=CNc1ncnc2cc(C)c(C)cc12)C(=O)OCC | 146 to 148 |
| CC1CCC(C(C)C)C(OC(=O)N[C@@]2(C)CCC(=O)NC2=O)C1 (some centres undefined) | 170 to 172 |
| O=C1c2ccc([N+](=O)[O-])c3c([N+](=O)[O-])c(Br)cc(c23)C(=O)N1O | 233 to 234 |
| CCCCCCC(=O)CCCn1c(CCC)nc2c(N)nc3ccccc3c21 | 111 to 113 |
| CCCCOc1ccc(C(=O)N[C@@H]2COc3cccc(N4CCN(C)CC4)c3C2)cc1 | 192 to 194 |
| C#CC(O)c1csc(C)n1 (centres undefined) | 94 |
| CC(C)n1c(=O)c(C(=O)O)cc2ccccc21 | 168 to 169 |
| COc1ccc(C2(C#Cc3csc(C(=O)O)c3)CCC(=O)CC2)cc1OC1CCCC1 | 80 to 82 |
| O=C1c2ccccc2C(=O)N1C[C@H](O)CCl | 100 to 101 |
| CSc1ccccc1CNc1ncnc2c1sc1nc(N3CCCC3)c3c(c12)CC(C)(C)OC3 | 176 to 177 |
| OCC=C[C@@H]1O[C@H]1C#CC#CC#Cc1ccccc1 (relative stereo) | 65 to 66 |
| CC1(C)OCC(COS(=O)(=O)c2ccc([N+](=O)[O-])cc2)O1 (centres undefined) | 92 to 94 |
| O=C1c2ccccc2N(Cc2ccccc2)C2=NCCN12 | 203 to 205 |
| CC(C)C(c1cc(Cl)ccc1N1CCCCC1)C(C(N)=O)c1ccc(C(=O)O)cc1 (centres undefined) | 236 to 240 |
| COc1cccc2c1nc(C(F)F)n2-c1nc(N2CCOCC2)nc(N2CCN(S(=O)(=O)C(F)(F)F)CC2)n1 | 272 to 273 |
| Nc1cccc(-c2ccc(CCN3CCc4ccccc4C3)cc2)n1 | 130 to 132 |
| CC(C)c1ccc(-c2coc3cc(O)c(O)cc3c2=O)cc1 | 181 to 182 |
| CCCCCCCCCCSc1ccc(Br)cc1 | 37 to 39 |
| NS(=O)(=O)c1ccc(-c2cn(-c3nc(-c4ccc(Cl)cc4)cc(C(F)(F)F)n3)cn2)s1 | 284 |
| CCCOc1ccc(S(=O)(=O)CCC)cc1C(N)=O | 168 to 170 |

| SMILES | melting point [°C] |
| --- | --- |
| CC(C)C(=O)Oc1cc(-c2cn3c(n2)sc2ccccc23)cc([N+](=O)[O-])c1OC(=O)C(C)C | 197 to 199 |
| CON=Cc1ncn2c1[C@@H]1CCCN1C(=O)c1c(Cl)cccc1-2 | 194 to 195 |
| O=S(=O)(Oc1cccc(OS(=O)(=O)C(F)(F)F)c1OS(=O)(=O)C(F)(F)F)C(F)(F)F | 47.5 to 48.5 |
| Ic1cccc(C=Cc2ccccc2)c1 | 96 |
| CC1(C)CC(=O)Nc2c(CCN3CCN(c4nsc5ccc(F)cc45)CC3)cc(F)cc21 | 191 |
| CC(C(=O)NC(=O)OC1CCCCC1)(c1ccccc1)c1ccccc1 | 126 |
| CCOC(=O)N1CCN(C2Cc3cc(C)ccc3Sc3ccccc32)CC1 (centres undefined) | 96 to 98 |
| O=C1N[C@H]2CCN(C(=O)OCc3ccccc3)[C@H]2[C@H]1C1CC1 (relative stereo) | 141 to 149 |
| COc1cc(NC=CS(=O)(=O)F)c(C(C)=O)cc1OC | 142 to 146 |
| COc1cc(OC)nc(NC(=O)NS(=O)(=O)N=CN(C)CSC)n1 | 167 to 168 |
| COc1ccccc1-n1c(=O)[nH]c2c(C(N)=O)nc(-c3cccc4[nH]cnc34)nc21 | 312 |
| CCCC1=C(C(=O)OC)C(c2ccccc2Cl)c2c[nH]nc2N1 (centres undefined) | 203 to 207 |
| COc1ccc2ncc(NC(=O)C=Cc3cc(OC)c(OC(C)=O)c(OC)c3)c(-c3ccccc3)c2c1 | 273 to 275 |
| CCCc1cc(C(=O)O)cc(CCC)c1OCCCCCCc1cccc(O)c1O | 94 to 96 |
| CC1CC(N)=C(C#N)C1C (centres undefined) | 92 to 100 |
| CCOC(=O)c1c(CC)nn2c(-c3cccnc3)ccnc12 | 119 to 120 |
| O=C(Nc1nc2ccccc2nc1Oc1ccccc1)N1CCN(C(c2ccccc2)c2ccccc2)CC1 | 208 to 210 |
| O=C1CCC(Cc2ccccc2Cl)CC1 | 48 |
| CCCCN1C2=NCCN2C(c2ccccc2)c2cc(Cl)ccc21 (centres undefined) | 97 to 97.5 |
